Like-named read-outs stand apart in the source and are kept apart here.
Columns and labels:
PDGFRα D842V = PDGFRα D842V (Homo sapiens (Human), UniProt P16234, D842V); experiment: PDGFRα D842V biochemical enzymatic activity assay (EZReader 2 mobility shift); settings: at APPKM for ATP, 25 μM ATP, 90 minutes
Excerpt: (§1) PDGFRα and KIT enzymatic activity was monitored using the Perkin Elmer electrophoretic mobility shift technology platform, the EZReader 2.
(§2) Within the linear, steady-state phase of the kinase enzymatic reaction, the mixed pool of phosphorylated (product) and non-phosphorylated (substrate) peptides was passed through the microfluidic system of the PerkinElmer EZ Reader 2, under an applied electric potential difference. The presence of the phosphate group on the product peptide provided a difference in mass and charge between that of the substrate peptide, resulting in a separation of the substrate and product pools in the sample (Perrin et al., Expert Opin Drug Discovery 2010 Jan. 5(1):51-63).
(§3) As the product and substrate peptide mixture passes the lasers within the instrument, these pools are detected (λex=488 nm, λem=568 nm) and resolved as separate peaks. The ratio between these peaks reflects the activity of the compound at that concentration, in that well, under those conditions.
Inhibition of KIT (D816V) PDGFRα (D842V) Mutant Biochemical Enzymatic Activity
(§4) All test articles were dissolved in 100% DMSO at a stock concentration of 10 mM. A 100×, 10-point, 4-fold serial dilution of all test compounds was created in 100% DMSO, starting at a relevant concentration, usually 1 mM. A volume of 0.130 μL of each concentration was transferred to the relevant well of a 384-well assay plate (Greiner 781 201) using a TTPLabtech Mosquito nano-liter dispenser. Using the Multidrop, the remaining constituents of the reaction were then added to the 0.130 μL of compound as follows:
The reaction was stopped by the addition of 70 μl of Stop buffer (100 mM HEPES pH 7.5, 0.015% Brij 35, 35 mM EDTA and 0.2% of Coating Reagent 3, Caliper Lifesciences). The plate was read on a Caliper EZReader 2.

KIT D816V [1] = molecular target: KIT D816V (Homo sapiens (Human), UniProt P10721, D816V); experiment: KIT D816V biochemical enzymatic activity assay (EZReader 2 mobility shift); settings: at APPKM for ATP, 20 μM ATP, 60 minutes
Sequence of KIT D816V (Homo sapiens (Human), UniProt P10721, D816V) (P10721 26-976 D816V): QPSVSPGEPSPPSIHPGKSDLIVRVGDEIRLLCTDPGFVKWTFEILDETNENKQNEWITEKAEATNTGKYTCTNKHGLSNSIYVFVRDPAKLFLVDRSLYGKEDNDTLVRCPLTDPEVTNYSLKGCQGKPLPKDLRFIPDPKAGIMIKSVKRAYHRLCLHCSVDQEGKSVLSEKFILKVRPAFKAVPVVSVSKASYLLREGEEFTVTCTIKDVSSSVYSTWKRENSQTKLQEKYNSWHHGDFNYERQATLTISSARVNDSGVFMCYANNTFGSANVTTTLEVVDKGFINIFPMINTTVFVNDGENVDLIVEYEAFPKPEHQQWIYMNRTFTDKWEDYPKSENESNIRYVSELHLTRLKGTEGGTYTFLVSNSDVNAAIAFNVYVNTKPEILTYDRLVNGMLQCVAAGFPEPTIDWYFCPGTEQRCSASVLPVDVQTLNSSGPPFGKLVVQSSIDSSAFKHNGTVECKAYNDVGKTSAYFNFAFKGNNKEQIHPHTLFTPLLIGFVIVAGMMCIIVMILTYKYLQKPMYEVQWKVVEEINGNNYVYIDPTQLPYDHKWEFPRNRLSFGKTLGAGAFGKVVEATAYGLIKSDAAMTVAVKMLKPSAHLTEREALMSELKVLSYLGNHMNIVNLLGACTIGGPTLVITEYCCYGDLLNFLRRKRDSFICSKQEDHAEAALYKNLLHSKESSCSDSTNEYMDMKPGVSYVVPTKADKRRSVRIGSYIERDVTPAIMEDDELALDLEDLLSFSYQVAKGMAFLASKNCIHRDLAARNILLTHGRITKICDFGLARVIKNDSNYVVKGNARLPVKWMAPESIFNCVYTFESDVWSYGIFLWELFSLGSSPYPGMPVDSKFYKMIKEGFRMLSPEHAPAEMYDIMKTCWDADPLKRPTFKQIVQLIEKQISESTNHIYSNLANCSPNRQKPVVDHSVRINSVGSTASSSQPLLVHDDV
Excerpt: as §1, §2, §3, §4
The plate was read on a Caliper EZReader 2.

KIT D816V [2] = molecular target: KIT D816V (Homo sapiens (Human), UniProt P10721, D816V/V560G); experiment: HMC1.2 autophosphorylation assay (phospho-Y719 KIT AlphaLISA); assay type: cell-based; settings: HMC1.2 cell line, KIT autophosphorylation at tyrosine 719, 90 minutes; read-out: KIT (P-KIT HMC1.2 (nM))
Sequence of KIT D816V (Homo sapiens (Human), UniProt P10721, D816V/V560G) (P10721 26-976 V560G/D816V): as the sequence (P10721 26-976 D816V) above, with V535G counted along it
Experimental: 10,000 HMC1.2 cells were incubated in 22 μL culture media (phenol-red free IMDM, no serum) in each well of a 384-well plate and serum starved overnight in a tissue culture incubator (5% CO2, 37° C.). […] 10 μL of 100 μg/mL streptavidin donor beads (Perkin Elmer) were added to each well, blocked from light with solid black adhesive and shaken at 300 rpm at room temperature for 2 hours. Fluorescence signal was obtained on Envision (Perkin Elmer) by AlphaScreen 384 well HTS protocol.

wt KIT kinase = wt KIT kinase (Homo sapiens (Human), UniProt P10721); experiment: Wild-type KIT binding assay (Kd determination, phage-tagged kinase, qPCR)
Sequence of wt KIT kinase (P10721 26-976): as the sequence (P10721 26-976 D816V) above, with V791D counted along it
Experimental: Kd Determinations. For most assays, including wt KIT kinase, kinase-tagged T7 phage strains were prepared in an E. coli host derived from the BL21 strain. E. coli were grown to log-phase and infected with T7 phage and incubated with shaking at 32° C. until lysis. […] The liganded beads were blocked with excess biotin and washed with blocking buffer (SeaBlock (Pierce), 1% BSA, 0.05% Tween 20, 1 mM DTT) to remove unbound ligand and to reduce non-specific binding. […] Test compounds were prepared as 111× stocks in 100% DMSO. Kds were determined using an 11-point 3-fold compound dilution series with three DMSO control points. […] The compounds were then diluted directly into the assays such that the final concentration of DMSO was 0.9%. All reactions were performed in polypropylene 384-well plate. Each was a final volume of 0.02 ml. […] The kinase concentration in the eluates was measured by qPCR.
Binding Constants (Kds). Binding constants (Kds) were calculated with a standard dose-response curve using the Hill equation: Response=Background+Signal−Background 1+(KdHill Slope/DoseHill Slope). The Hill Slope was set to −1. Curves were fitted using a non-linear least square fit with the Levenberg-Marquardt algorithm.

CYP2C9 = CYP2C9 (Homo sapiens (Human), UniProt P11712); experiment: CYP inhibition in human liver microsomes, CYP2C9 (diclofenac); assay type: in vitro ADME; settings: pooled human liver microsomes, substrate diclofenac
Sequence of CYP2C9 (P11712 whole entry): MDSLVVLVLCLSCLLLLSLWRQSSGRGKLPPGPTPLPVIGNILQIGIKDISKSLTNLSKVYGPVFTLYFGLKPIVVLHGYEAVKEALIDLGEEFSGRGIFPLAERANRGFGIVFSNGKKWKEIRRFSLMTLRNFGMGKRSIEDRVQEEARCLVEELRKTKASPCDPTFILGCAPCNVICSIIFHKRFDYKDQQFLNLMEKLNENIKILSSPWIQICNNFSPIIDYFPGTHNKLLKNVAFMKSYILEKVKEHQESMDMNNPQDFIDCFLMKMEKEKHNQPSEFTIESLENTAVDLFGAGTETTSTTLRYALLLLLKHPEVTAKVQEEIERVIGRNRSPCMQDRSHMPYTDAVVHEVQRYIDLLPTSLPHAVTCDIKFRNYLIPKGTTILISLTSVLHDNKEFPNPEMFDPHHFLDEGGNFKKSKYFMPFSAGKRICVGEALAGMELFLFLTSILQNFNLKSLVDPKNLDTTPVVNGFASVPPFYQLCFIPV
Experimental: (§5) In vitro studies in human liver microsomes were run according the standard method. […] The samples were then analyzed by LC-MS/MS for the quantification of the probe substrate left after the reaction and the IC50 values were determined by non-linear regression. The substrates for CYP2C9, CYP2D6, CYP3A4 were diclofenac, dextromethorphan and midazolam/testosterone respectively.

CYP3A4 = CYP3A4 (Homo sapiens (Human), UniProt P08684); experiment: CYP inhibition in human liver microsomes, CYP3A4 (midazolam/testosterone); assay type: in vitro ADME
Sequence of CYP3A4 (P08684 whole entry): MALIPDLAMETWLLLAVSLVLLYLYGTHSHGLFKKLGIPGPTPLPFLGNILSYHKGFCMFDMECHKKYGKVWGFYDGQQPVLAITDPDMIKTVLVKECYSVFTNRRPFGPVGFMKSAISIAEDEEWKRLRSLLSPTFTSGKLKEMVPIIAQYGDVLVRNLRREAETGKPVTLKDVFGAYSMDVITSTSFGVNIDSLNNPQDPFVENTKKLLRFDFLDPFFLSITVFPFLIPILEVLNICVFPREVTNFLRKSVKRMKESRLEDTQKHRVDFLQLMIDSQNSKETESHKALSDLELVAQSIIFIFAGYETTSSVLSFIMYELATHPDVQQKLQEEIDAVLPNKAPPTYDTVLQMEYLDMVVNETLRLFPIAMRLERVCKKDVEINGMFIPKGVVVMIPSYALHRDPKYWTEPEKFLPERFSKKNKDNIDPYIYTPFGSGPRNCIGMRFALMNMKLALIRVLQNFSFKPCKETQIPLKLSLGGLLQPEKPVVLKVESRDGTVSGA
Experimental: as §5

[3] = Pharmacokinetics following single intravenous and oral administration in rats; assay type: in vivo, Sprague-Dawley rats
Experimental: Assessment of pharmacokinetics following single intravenous and oral administration in rats: 3 Sprague-Dawley rats were employed for each compound for each route of administration (iv or oral). For iv administration, 1 mg/kg (dose volume=5 mL/kg) of each compound was administered by intravenous route via […] injection; whereas for oral route, 2.5 mg/kg (dose volume=5 mL/kg) was administered via oral gavage. Blood samples were obtained via tail vein at predose, 0.083, 0.25, 0.5, 1, 2, 4 and 8 hr. In addition, blood samples were also obtained at 24 hr via cardiac puncture (under anesthesia with Isoflurane) for terminal bleeding. All the blood samples were analyzed for the drug concentrations via LC/MS-MS. Pharmacokinetic parameters such as Cmax, Tmax, AUClast, AUCinf, MRTlast, MRTinf, T1/2, Vss and CL were obtained by non-compartmental analysis (NCA). Further, unbound clearance (CLu) was obtained as follows: Clu=Cl/fu,plasma.
% F was calculated as follows: % F=[AUCinf(oral)/Dose]/[AUCinf(iv)/Dose]*100 (Zhivkova & Doytchinova, Molecular Pharmaceuticals 10:3758-68 (2013)).

Sequence of PDGFRα D842V (P16234 24-1089 D842V): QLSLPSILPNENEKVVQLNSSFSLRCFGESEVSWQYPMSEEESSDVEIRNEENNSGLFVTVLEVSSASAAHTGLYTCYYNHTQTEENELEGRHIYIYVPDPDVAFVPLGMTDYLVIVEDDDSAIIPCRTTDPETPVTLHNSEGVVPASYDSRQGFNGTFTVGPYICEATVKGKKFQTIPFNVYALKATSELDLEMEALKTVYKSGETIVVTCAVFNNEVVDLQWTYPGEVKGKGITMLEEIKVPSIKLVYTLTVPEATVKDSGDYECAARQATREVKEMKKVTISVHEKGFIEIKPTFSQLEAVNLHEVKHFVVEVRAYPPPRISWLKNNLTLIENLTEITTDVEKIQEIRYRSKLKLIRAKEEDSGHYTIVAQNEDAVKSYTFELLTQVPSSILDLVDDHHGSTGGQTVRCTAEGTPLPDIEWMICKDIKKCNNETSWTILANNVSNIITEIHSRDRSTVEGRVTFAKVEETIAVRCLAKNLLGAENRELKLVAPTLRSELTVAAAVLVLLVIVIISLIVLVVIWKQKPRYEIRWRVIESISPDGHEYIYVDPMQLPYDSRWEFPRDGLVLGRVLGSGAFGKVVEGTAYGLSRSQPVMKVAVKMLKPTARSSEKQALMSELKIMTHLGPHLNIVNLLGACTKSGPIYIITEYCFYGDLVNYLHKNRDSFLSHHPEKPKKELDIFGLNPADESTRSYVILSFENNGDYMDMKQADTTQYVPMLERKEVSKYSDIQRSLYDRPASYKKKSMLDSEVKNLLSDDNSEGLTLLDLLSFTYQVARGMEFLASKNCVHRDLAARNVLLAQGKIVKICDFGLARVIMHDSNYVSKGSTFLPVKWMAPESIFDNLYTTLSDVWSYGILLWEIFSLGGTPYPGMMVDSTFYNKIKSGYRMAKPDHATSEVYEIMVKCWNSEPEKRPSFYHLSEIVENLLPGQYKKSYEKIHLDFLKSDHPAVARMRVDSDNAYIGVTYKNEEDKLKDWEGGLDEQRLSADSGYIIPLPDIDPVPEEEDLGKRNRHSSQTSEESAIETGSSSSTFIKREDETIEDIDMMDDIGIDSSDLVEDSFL

Structure (SMILES)	IC50 (PDGFRα D842V) [µM]	IC50 (KIT D816V [1]) [µM]	IC50 (KIT D816V [2]) [nM]	Kd (wt KIT kinase) [µM]	IC50 (CYP2C9) [µM]	IC50 (CYP3A4; as measured according to Example 5, substrate not stated (embodiment 14), read-out: IC50 for CYP3A4) [µM]	IC50 (CYP3A4; pooled human liver microsomes, substrate midazolam, read-out: CYP3A4 IC50 (μM) midazolam) [µM]	IC50 (CYP3A4; pooled human liver microsomes, substrate testosterone, read-out: CYP3A4 IC50 (μM) testosterone) [µM]	clearance ([3]; Sprague-Dawley, blood, rat, iv 1 mg/kg, read-out: Rat IV PK Cl) [mL/min/kg]	bioavailability ([3]; Sprague-Dawley, blood, rat, oral 2.5 mg/kg vs iv 1 mg/kg) [%]	Rat IV PK unbound clearance (Clu) ([3]; iv 1 mg/kg, Clu=Cl/fu,plasma) [mL/min/kg]
CCn1cc(-c2cc3c(N4CCN(c5ncc([C@@](C)(N)c6ccc(F)cc6)cn5)CC4)ncnn3c2)cn1 [Compound 63, reference compound]	≤ 0.0003	≤ 0.0003	< 4.5	0.0151 to 0.02	–	–	–	–	–	–	–
C[C@](N)(c1ccc(F)cc1)c1cnc(N2CCN(c3ncnn4cc(-c5cnn(CCO)c5)cc34)CC2)nc1 [Compound 4, (S)-2-(4-(4-(4-(5-(1-amino-1-(4-fluorophenyl)ethyl)pyrimidin-2-yl)piperazin-1-yl)pyrrolo[2,1-f][1,2,4]triazin-6-yl)-1H-pyrazol-1-yl)ethanol]	–	–	–	–	7.13	< 10	≥ 10	≥ 10	12	80	582
